# Assays:
# Type in all cases: cell-based, human
# [1] = system: C8161 cells; assay: MICS (Membrane Invasion Culture System) invasion assay; conditions: C8161, ALK 4/5/7 inhibitor
# Procedure: (A) Invasion of C8161 cells following culture on unconditioned Matrigel (Control) or Matrigel preconditioned by either H1 or HSF-6 hESCs was calculated as a percentage of cells able to invade through a defined matrix (collagen IV, laminin, and gelatin)-coated membrane during a 24 hour period using the MICS (Membrane Invasion Culture System) assay. Bars represent the mean, normalized, invasion indices±standard deviations. […] (B) In vivo tumor formation in a mouse injected with C8161 cells pre-exposed for 3 days to either a control matrix (Matrigel) or a matrix conditioned by hESCs (H9 CMTX) (n=21).
# The aggressiveness of tumor cells is correlated with their ability to invade through the extracellular matrix; thus, the effect of hESC microenvironments on melanoma cell invasion was investigated.
# The derivation and phenotypic characteristics of the human melanoma cell lines have been previously described. Seftor, et. al., 2002, Clin. Experim. Metastas. 19:233-246; Seftor, et. al., 2005 Cancer Res. 65:10164-10169. […] The cultures are determined to be free of mycoplasma contamination using a PCR-based assay (Roche). […]
# [2] = system: Nodal; assay: Nodal expression in C8161 cells (Western blot, real time RT-PCR); conditions: C8161, ALK 4/5/7 inhibitor 1 μM, 10 μM
# Procedure: A determination of the effects of H9 CMTX on Nodal expression in metastatic melanoma (C8161) and breast carcinoma (MDA-MB-231) cells was undertaken. […] Exposure to H9 CMTX similarly abrogates Nodal mRNA expression in the melanoma and breast carcinoma cells (FIG. 9C).
# Protein lysates were prepared and quantified as previously described in Hess et al., 2001, Cancer Res. 61:3250-3255. Equal amounts of protein were separated by SDS-polyacrylamide gel electrophoresis under reducing conditions, and the resolved proteins were transferred onto Immobilon-P membranes (Millipore Corp., Bedford, Mass.). Membranes were blocked in 1% TBS, 0.1% Tween 20 (TBS-T) and 5% dry milk powder or 3% gelatin (for Nodal Westerns). Blots were incubated with anti-Nodal or anti-Lefty antibodies (Polyclonal rabbit anti-Nodal (H-110) 1:500 Santa Cruz Biotechnology, Santa Cruz, Calif.; Polyclonal goat anti-Lefty 1:500 R&D Systems, Minneapolis, Minn.), washed in TBS-T, and incubated with the appropriate horseradish peroxidase-labeled secondary antibody. Secondary antibodies were detected by enhanced chemiluminescence (Super Signal; Pierce, Rockford, Ill.) and exposure to autoradiography film (Molecular Technologies, St Louis, Mo.). Nodal protein was detected as two major bands at ˜48 and ˜35 kDa representing precursor and pro-Nodal respectively. Nodal often appeared as multiple bands, likely due to degradation of protein modifications. All experiments were done at least three times.
# The derivation and phenotypic characteristics of the human melanoma cell lines have been previously described. Seftor, et. al., 2002, Clin. Experim. Metastas. 19:233-246; Seftor, et. al., 2005 Cancer Res. 65:10164-10169. The melanoma cell lines are maintained in RPMI 1640 medium (Invitrogen) supplemented with 10% fetal bovine serum (FBS, Gemini Bioproducts) and 0.1% gentamycin sulfate with the exception of C81-61 cells which are maintained in Ham's FIO medium supplemented with 15% FBS, 1X Mito+ (BD Bioscience) and gentamycin sulfate. […] The cultures are determined to be free of mycoplasma contamination using a PCR-based assay (Roche). […]
# [3] = system: C8161 cells; assay: Vasculogenic mimicry and plasticity biomarkers in C8161 cells with ALK 4/5/7 inhibitor; conditions: C8161, ALK 4/5/7 inhibitor
# Procedure: (A) Western blot analyses of Nodal, phosphorylated SMAD-2, total SMAD 2/3, and Actin in C8161 cells 48 hours after administration of either vehicle or an ALK 4/5/7 inhibitor (SB431542, 1 μM, 10 μM). […] (B) Western blot analyses of Nodal, Tyrosinase and Actin in C8161 cells 24 hours after the administration of either vehicle or different concentrations of ALK inhibitor while (C) is a Western analyses for VE-Cadherin, Keratin 18 and Actin in C8161 cells cultured on 3-D collagen I matrices for 6 days in the presence of vehicle or different concentrations of ALK inhibitor.
# [4] = system: Notch; assay: Western blot analysis of Notch 1, 2 and 4 in C8161 cells; conditions: C8161 treated with Nodal inhibitor
# From the text: Western blot analysis of C8161 cells 72 hrs following the administration of siRNA. […] Western blot analysis of Notch 1, 2 and 4 in C8161 cells treated with the Nodal inhibitor SB431542.
smiles,measurement,setting,value
NC(=O)c1ccc(-c2nc(-c3ccc4c(c3)OCO4)c(-c3ccccn3)[nH]2)cc1 [SB431542],invasive ability,[1],reduction in invasive ability
same,Nodal expression (Western blot),[2],down-regulation of Nodal
same,expression of vasculogenic mimicry plasticity biomarkers (Western blot),[3],reduction
same,vasculogenic mimicry,[3],abrogation of vasculogenic mimicry
same,Notch expression (Western blot),[4],relatively unaffected

# From US8106004B2, “Methods of inhibiting tumor cell aggressiveness using the microenvironment of human embryonic stem cells” (Children's Memorial Hospital, priority 2006, dated 2012)
